# Measured values published in patent US7964647B2 (Mutual Pharmaceutical Company, Inc., priority 2007, dated 2011).
# Read-outs that look alike come from different tables or passages of the source.
# How the values were obtained:
# [1] = clinical; settings: human, in vivo, 0.6 mg; for AUC: AUC0-τ, 0.6 mg b.i.d. x 10 days, after last dose (Day 25), healthy adults, N = 13
# Experimental: Subjects received a light breakfast served 60 minutes following dose administration in the morning and the evening dose was administered 90 minutes after an evening meal on Days 15 through 24 only. […] Study periods were separated by a 14-day washout. Following the single dose and the last dose of the multiple dose regimen (beginning on the mornings of Day 1 and Day 25, respectively), blood samples were collected (6 mL each) from each subject within 1 hour prior to dosing and after dose administration at study hours 0.5, 1, 1.5, 2, 3, 4, 6, 8, 10, 12, and 24 (while confined) and 36, 48, 72, and 96 (on an outpatient basis).
# [2] = 0.6 mg b.i.d. x 10 days, after last dose (Day 25), healthy adults, N = 13
# [3] = single oral 0.6 mg dose, healthy adults, N = 13
smiles,measurement,setting,value
"COc1cc2c(c(OC)c1OC)-c1ccc(OC)c(=O)cc1[C@@H](NC(C)=O)CC2 [Colchicine, (−)-N-[(7S,12aS)-1,2,3,10-tetramethoxy-9-oxo-5,6,7,9-tetrahydrobenzo[a]heptalen-7-yl]-acetamide]","AUC0-inf, MAX",[2],67.94465 ng·h/mL
same,"AUC0-inf, MEAN",[2],54.19877 ng·h/mL
same,"AUC0-inf, MEDIAN",[2],54.11343 ng·h/mL
same,"AUC0-inf, MIN",[2],37.59976 ng·h/mL
same,"AUC0-t, MAX",[2],58.26535 ng·h/mL
same,"AUC0-t, MEAN",[2],43.57696 ng·h/mL
same,"AUC0-t, MEDIAN",[2],41.9251 ng·h/mL
same,"AUC0-t, MIN",[2],29.32878 ng·h/mL
same,"AUC0-τ, MAX",[2],36.08395 ng·h/mL
same,"AUC0-τ, MIN",[2],20.79198 ng·h/mL
same,"Cave, MAX",[2],1.5035 ng/mL
same,"Cave, MEAN",[2],1.21068 ng/mL
same,"Cave, MEDIAN",[2],1.18551 ng/mL
same,"Cave, MIN",[2],0.86633 ng/mL
same,"Cmax, MAX",[2],4.957 ng/mL
same,"Cmax, MEAN",[2],3.55315 ng/mL
same,"Cmax, MEDIAN",[2],3.734 ng/mL
same,"Cmax, MIN",[2],1.977 ng/mL
same,"Cmin, MAX",[2],1.14967 ng/mL
same,"Cmin, MEDIAN",[2],0.9035 ng/mL
same,"Cmin, MIN",[2],0.63623 ng/mL
same,"Kel, MAX",[2],0.03 h⁻¹
same,"Kel, MEAN",[2],0.03 h⁻¹
same,"Kel, MEDIAN",[2],0.03 h⁻¹
same,"Kel, MIN",[2],0.02 h⁻¹
same,"T1/2, MAX",[2],33.65 h
same,"T1/2, MEDIAN",[2],26.51 h
same,"T1/2, MIN",[2],20.82 h
same,"Tmax, MAX",[2],3.00 h
same,"Tmax, MEAN",[2],1.31 h
same,"Tmax, MIN",[2],0.50 h
same,"AUC0-inf, MAX",[3],23.83848 ng·h/mL
same,"AUC0-inf, MIN",[3],7.25266 ng·h/mL
same,"AUC0-t, MAX",[3],18.12865 ng·h/mL
same,"AUC0-t, MIN",[3],4.81288 ng·h/mL
same,"Cmax, MAX",[3],3.977 ng/mL
same,"Cmax, MIN",[3],1.584 ng/mL
same,"Kel, MAX",[3],0.2443 h⁻¹
same,"Kel, MEAN",[3],0.1829 h⁻¹
same,"Kel, MEDIAN",[3],0.1992 h⁻¹
same,"Kel, MIN",[3],0.0359 h⁻¹
same,"T1/2, MAX",[3],19.29 h
same,"T1/2, MIN",[3],2.84 h
same,"Tmax, MAX",[3],3.00 h
same,Cmin prior to the morning dose higher than Cmin prior to the evening dose,"steady state, Day 23 and Day 24",approximately 12%
same,Tmax,[1],1 h
same,AUC,[1]; MEAN,29.1 ng·h/mL
same,AUC,[1]; MEDIAN,28.5 ng·h/mL
same,Cmax,[1]; po,2.71 ng/mL
same,half-life,[1]; po,~5 h
